Among the data in ChEMBL document CHEMBL4507282, “Data for DCP probe BI-1950” (2021) are residual activity, activity and inhibition values, retold here.

Data set [1] concerns the target D(3) dopamine receptor (Homo sapiens) (UniProt P35462). Kind of data set: D3/HU Eurofins-Panlabs selectivity data (BI). The conditions noted are these: Compound concentration 10.0 uM.
In data set [2] the target is 5-hydroxytryptamine receptor 6 (Homo sapiens) (UniProt P50406). Kind of data set: 5HT6/HU Eurofins-Panlabs selectivity data (BI). To be noted: Compound concentration 10.0 uM.
Sequence of 5-hydroxytryptamine receptor 6 (Homo sapiens) (P50406 whole entry): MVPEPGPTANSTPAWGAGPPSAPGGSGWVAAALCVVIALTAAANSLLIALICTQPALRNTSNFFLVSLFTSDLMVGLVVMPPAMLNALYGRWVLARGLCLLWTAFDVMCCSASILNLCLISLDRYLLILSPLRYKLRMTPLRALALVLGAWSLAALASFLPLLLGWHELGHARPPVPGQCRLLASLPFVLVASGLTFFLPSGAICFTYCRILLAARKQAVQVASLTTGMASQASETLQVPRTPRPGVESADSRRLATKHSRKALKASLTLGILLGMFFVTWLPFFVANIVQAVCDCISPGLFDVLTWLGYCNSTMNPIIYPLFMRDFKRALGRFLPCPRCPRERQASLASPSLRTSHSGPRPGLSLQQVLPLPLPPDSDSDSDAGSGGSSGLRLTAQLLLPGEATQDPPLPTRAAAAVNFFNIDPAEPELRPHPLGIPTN
In data set [3] the target is Serotonin 1 (5-HT1) receptor (Rattus norvegicus) (UniProt P28564+P30940+P19327+P28565). Kind of data set: 5HT1/R Eurofins-Panlabs selectivity data (BI). In kind it is protein assay. To be noted: Compound concentration 10.0 uM.
Data set [4] concerns the target T1, D(4) dopamine receptor (Homo sapiens) (UniProt P21917).
T1 sequence (whole entry): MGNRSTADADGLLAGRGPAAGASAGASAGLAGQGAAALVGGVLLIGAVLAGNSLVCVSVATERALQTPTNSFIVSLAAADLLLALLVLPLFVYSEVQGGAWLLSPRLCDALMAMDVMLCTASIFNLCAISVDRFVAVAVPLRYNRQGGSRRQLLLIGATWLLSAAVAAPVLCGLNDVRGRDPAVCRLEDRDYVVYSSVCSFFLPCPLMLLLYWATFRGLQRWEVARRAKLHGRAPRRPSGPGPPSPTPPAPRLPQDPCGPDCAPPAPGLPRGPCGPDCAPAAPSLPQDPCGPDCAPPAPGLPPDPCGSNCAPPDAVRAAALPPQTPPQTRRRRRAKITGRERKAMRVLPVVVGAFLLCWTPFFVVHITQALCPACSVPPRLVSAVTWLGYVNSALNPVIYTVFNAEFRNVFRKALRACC
Kind of data set: D4.2/H Eurofins-Panlabs selectivity data (BI). The conditions noted are these: Compound concentration 10.0 uM.

In data set [5] the target is Amine oxidase [flavin-containing] A (MAO-A) (Homo sapiens, UniProt P21397). The experiment in a line: MAOA Eurofins-Panlabs selectivity data (BI). Details: mode of action inhibitor; call rule not given here. To be noted: compound concentration 10 uM, read-out: % Ctrl.
Sequence of Amine oxidase [flavin-containing] A (MAO-A) (P21397 whole entry): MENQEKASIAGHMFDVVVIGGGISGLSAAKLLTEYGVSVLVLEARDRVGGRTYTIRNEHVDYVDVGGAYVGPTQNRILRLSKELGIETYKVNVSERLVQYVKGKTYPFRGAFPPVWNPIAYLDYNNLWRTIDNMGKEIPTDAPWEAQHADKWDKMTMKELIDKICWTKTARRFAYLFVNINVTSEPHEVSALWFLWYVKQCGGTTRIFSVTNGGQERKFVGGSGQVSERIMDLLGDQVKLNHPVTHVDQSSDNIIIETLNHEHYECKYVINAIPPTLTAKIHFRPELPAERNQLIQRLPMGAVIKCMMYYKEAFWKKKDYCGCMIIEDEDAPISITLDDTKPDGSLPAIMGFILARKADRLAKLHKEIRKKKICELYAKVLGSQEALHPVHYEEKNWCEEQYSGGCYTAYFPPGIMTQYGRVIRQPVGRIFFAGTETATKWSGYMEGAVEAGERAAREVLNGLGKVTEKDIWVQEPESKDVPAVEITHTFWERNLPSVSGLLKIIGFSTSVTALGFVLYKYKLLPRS
The target in data set [6] is 5-hydroxytryptamine receptor 1A (Homo sapiens) (UniProt P08908). To be noted: Compound concentration 10.0 uM.
Sequence of 5-hydroxytryptamine receptor 1A (Homo sapiens) (P08908 whole entry): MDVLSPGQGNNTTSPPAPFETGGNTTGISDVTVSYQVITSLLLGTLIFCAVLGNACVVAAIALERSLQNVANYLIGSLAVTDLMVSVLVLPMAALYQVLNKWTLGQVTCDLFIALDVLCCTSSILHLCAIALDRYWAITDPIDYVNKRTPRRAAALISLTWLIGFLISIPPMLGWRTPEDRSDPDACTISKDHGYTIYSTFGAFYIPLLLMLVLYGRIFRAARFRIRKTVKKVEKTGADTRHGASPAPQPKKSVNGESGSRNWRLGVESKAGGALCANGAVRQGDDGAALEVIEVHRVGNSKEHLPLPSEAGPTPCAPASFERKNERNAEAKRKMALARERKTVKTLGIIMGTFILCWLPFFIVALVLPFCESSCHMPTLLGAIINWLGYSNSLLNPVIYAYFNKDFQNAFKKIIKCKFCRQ
Data set [7] has as its target Gamma-aminobutyric acid receptor subunit alpha-1 (Rattus norvegicus) (UniProt P62813). The experiment in a line: GABAACENTR Eurofins-Panlabs selectivity data (BI). To be noted: Compound concentration 10.0 uM.
The target of data set [8] is Glutamate receptor ionotropic, NMDA 1 (Rattus norvegicus) (UniProt P35439). The experiment in a line: GLUTAMAT/R Eurofins-Panlabs selectivity data (BI). To be noted: Compound concentration 10.0 uM.
Data set [9] concerns the target Histamine H2 receptor (Homo sapiens) (UniProt P25021). The experiment in a line: H2/H Eurofins-Panlabs selectivity data (BI). The conditions noted are these: Compound concentration 10.0 uM.
Data set [10] deals with Voltage-dependent L-type calcium channel subunit alpha-1C (phenylalkylamine site) (Rattus norvegicus, UniProt P22002). The experiment in a line: CA+/PAASITE Eurofins-Panlabs selectivity data (BI). The conditions noted are these: read-out: % Ctrl.
Sequence of Voltage-dependent L-type calcium channel subunit alpha-1C (phenylalkylamine site) (P22002 whole entry): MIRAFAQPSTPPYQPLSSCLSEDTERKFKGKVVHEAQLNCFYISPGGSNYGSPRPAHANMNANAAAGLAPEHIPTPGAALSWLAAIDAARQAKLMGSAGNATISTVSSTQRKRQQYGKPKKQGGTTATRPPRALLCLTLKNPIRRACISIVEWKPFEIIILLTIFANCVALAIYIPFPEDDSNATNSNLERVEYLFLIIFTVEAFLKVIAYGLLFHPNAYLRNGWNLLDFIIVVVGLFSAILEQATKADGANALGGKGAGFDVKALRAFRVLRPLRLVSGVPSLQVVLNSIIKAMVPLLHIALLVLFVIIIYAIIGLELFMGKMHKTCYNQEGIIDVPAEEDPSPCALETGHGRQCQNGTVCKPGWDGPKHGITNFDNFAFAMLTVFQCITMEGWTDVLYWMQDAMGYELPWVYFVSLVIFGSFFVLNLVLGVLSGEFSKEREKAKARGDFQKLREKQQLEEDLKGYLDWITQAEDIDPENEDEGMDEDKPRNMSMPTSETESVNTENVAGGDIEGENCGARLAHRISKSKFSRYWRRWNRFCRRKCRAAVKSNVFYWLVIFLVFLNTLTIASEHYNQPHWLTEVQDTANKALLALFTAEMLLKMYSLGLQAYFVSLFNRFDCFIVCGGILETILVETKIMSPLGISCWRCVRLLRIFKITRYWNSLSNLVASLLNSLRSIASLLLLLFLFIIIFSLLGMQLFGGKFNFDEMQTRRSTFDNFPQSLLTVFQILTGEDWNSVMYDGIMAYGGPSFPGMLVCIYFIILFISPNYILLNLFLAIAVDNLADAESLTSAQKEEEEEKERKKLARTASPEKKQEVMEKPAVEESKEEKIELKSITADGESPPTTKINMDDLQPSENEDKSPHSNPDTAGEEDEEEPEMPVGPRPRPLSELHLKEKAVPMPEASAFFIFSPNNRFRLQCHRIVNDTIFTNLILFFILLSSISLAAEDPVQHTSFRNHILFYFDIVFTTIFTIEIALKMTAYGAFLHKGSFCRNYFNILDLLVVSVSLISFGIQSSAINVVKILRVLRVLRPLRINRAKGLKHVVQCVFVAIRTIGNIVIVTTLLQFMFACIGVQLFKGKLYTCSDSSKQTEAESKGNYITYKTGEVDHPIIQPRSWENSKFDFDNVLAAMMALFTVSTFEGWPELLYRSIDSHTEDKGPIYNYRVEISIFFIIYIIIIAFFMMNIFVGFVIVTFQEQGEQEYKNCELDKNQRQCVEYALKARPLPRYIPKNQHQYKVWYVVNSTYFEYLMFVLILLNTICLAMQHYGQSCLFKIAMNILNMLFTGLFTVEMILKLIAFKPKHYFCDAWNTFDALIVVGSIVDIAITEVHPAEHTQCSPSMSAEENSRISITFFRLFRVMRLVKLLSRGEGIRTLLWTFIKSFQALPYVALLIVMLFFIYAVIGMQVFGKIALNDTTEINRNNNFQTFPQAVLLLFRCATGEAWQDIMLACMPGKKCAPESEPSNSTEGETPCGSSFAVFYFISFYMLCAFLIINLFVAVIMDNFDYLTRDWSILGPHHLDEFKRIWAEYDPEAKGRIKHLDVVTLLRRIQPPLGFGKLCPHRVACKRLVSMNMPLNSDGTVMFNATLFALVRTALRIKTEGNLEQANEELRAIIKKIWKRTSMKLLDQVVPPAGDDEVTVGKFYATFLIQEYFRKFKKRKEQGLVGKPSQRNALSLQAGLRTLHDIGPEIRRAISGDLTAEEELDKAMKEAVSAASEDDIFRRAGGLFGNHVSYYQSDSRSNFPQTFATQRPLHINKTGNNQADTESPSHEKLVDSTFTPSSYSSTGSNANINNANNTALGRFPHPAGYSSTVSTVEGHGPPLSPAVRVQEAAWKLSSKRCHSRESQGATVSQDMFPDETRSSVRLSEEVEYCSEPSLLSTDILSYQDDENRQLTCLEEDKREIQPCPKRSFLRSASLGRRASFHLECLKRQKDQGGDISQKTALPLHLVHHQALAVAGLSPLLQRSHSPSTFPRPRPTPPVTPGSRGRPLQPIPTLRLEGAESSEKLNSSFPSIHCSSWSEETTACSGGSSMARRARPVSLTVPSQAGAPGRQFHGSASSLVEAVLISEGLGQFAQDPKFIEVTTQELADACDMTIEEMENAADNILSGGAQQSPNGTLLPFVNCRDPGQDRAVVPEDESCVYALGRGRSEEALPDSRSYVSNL

Sequence of Gamma-aminobutyric acid receptor subunit alpha-1 (Rattus norvegicus) (P62813 whole entry): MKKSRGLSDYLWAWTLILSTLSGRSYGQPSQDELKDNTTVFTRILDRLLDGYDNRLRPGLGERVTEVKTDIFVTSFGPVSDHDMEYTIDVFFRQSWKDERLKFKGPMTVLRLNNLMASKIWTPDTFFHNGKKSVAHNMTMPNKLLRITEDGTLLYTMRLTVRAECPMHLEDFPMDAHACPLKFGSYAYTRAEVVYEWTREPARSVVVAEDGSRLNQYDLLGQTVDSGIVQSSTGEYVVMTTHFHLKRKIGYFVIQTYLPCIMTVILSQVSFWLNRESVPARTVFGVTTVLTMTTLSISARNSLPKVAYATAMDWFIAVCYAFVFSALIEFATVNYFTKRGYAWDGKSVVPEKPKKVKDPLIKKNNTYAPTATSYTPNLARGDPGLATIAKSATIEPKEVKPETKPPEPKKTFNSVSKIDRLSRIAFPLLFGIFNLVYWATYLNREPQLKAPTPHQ
Sequence of Histamine H2 receptor (Homo sapiens) (P25021 whole entry): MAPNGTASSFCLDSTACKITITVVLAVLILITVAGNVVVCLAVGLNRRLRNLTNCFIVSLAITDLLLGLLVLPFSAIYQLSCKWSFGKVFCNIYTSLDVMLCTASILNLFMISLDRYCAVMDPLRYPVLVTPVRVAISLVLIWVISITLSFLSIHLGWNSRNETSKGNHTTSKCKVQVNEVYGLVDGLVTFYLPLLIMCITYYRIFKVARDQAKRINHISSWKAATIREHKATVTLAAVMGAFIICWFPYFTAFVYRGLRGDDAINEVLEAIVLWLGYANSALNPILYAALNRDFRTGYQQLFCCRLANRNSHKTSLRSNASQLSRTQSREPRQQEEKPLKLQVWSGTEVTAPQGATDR
Sequence of D(3) dopamine receptor (Homo sapiens) (P35462 whole entry): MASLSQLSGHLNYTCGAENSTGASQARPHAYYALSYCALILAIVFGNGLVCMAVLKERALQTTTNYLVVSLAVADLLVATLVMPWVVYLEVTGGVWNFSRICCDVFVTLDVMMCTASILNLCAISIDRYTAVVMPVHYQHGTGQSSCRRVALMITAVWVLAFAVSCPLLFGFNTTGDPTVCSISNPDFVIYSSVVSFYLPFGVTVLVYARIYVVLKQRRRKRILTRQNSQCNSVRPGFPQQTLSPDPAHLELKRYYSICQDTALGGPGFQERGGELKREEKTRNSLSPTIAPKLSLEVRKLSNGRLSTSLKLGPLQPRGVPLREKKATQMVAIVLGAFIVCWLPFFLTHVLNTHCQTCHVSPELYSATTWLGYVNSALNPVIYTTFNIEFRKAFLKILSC

For the compound `C[C@H](NC(=O)c1cnc2n1[C@](C)(Cc1ccc(C#N)cc1)C(=O)N2c1cc(Cl)c(F)c(Cl)c1)C(=O)NC1(c2ccccn2)CC1` [BI 1950], the residual activity was 88% in [1]; 102% in data set [2]; 100% in data set [3]; 86% in [4]; 99% in data set [7]; 92% in data set [8]. For the same compound, the residual activity in data set [9] was 74%. Further, the results for the activity at 10 µM in data set [5] and in data set [10] (compound concentration 10 uM) were 107% (not active) and 49.5%, respectively. The inhibition in data set [6] is -9.74%. For the same compound, the activity at 0.03 µM in data set [10] (compound concentration 0.03 uM) is given as 109% (not active). Further, in data set [10] (compound concentration 0.1 uM), the activity at 0.1 µM is given as 110% (not active). For the same compound, the activity at 0.3 µM in data set [10] (compound concentration 0.3 uM) is 102% (not active). In addition, the activity at 1 µM in data set [10] (compound concentration 1 uM) is given as 86% (not active). Further, in data set [10] (compound concentration 3 uM), the activity at 3 µM is given as 76% (not active).
